Measured values: US10201558B2, “Compositions of selenoorganic compounds and methods of use thereof” (Alltech, Inc., priority 2014, dated 2019)

Assays:
PPARG = assay: QRT-PCR of PPARG mRNA in IMR-32 cells (normal, control KD, FOXO4 KD); format: cell-based, human
Description: (§1) IMR-32 cells were cultured on 12-well plates for 24 hours and then incubated with FOXO4 siRNA lentiviruses (SC-29650V, Santa Cruz) or control siRNA lentiviruses (sc-108080, Santa Cruz) in the presence of Polybrene (5 μg/ml, Santa Cruz) for 24 hours according to the manufacturer's protocol. These lentiviral siRNA-transfected cells were amplified in normal media for 3 days and then incubated with puromycin for 9-14 days to obtain the stable Control KD (stably transfected with the control siRNAs) and FOXO4KD (stably transfected with Foxo4 siRNAs) cells. These control and Foxo4 KD cells were subjected to cell survival, mitochondrial potential and RNA analysis.
(§2) Human IMR-32 cells were seeded on gelatinized 6-well (6.5×10^5 cells/well) or 24-well (1.3×10^5 cells/well) plates. Cells were treated with control (0 ppb) or various compounds for 6 hours or 24 hours. Total RNA from these cells was isolated using Trizol (Invitrogen) according to the manufacturer's protocol, and then incubated with DNase I to remove any potential contaminated genomic DNA. Then RNA samples were subjected to real-time PCR analysis using the Applied-Bioscience's RT kit and predesigned Taqman probes (Invitrogen), as described previously (Lan et al EMBO J 2003). The mRNA levels of UCP1, UCP2, UCP3, SLC25A27 (UCP4), SLC25A14 (UCP5), PSEN1, Nicastrin, GSK3B, MAPK11-14, PPARG, APOE, RCAN1, RCAN1.1, G6PC, INSR, IGF1R and FOXO4 were measured. Three to six samples were analyzed in each treatment group. Data were normalized by Actin B (ACTB) or Glyceraldehyde Phosphate Dehydrogenase (GAPDH) mRNA levels in each sample and are presented as mean±SEM of 3-6 samples.
To explore this possibility, IMR-32 cells were treated with 150 ppb Compound C, Compound D or Compound E (150 ppb) for 6 hours and 24 hours, and then subjected to Western blot and QRT-PCR analyses. […] Therefore, Compound C and Compound D are downregulators of PPARG in IMR-32 cells at both mRNA and protein levels. […]

[1] = system: control KD and FOXO4KD IMR-32 cells; assay: Mitochondrial potential in control KD and FOXO4 knockdown IMR-32 cells; format: cell-based, human; conditions: 75 ppb and 150 ppb, 6 hours
Description: as §1
The mitochondrial potential per cell in control lentiviral KD IMR-32 or IMR-32 FOXO4 knockdown (KD) cells was determined using the Bio-TeK Synergy HT Multi-Mode fluorescence microplate reader with the following modifications. To improve the attachment of IMR-32 cells to culture dishes, cell culture plates were precoated with 0.1% gelatin (Sigma, St. Louis, Mo.).
To reduce cell dislodgment, Mitotracker Orange and Hoechst 33342 fluorescent dyes (diluted in culture media) were directly added to each well after control or compound treatments were added. After dye incubation, cell culture media was carefully replaced with 1×PBS buffer for the quantitation analysis of fluorescence on the microplate reader. Eight samples per each treatment were examined for the above analysis, and the experiments were repeated at least five times. Data are presented as mean±sem of eight samples.
To exclude the possibility that unknown factors in sera may affect the action of Compound C in cultured IMR-32 cells, cells were cultured in serum-free media for 24 hours, treated with Compound C (diluted in serum-free media) for 6 hours, and then subjected to MT analysis. Data were normalized by the fluorescence intensities of stained cell nuclei. Mean±SEM, n=8. The * refers to a p value <0.05 when compared to the control lentiviral KD cells group (0 ppb).

MAPK14 = assay: QRT-PCR of MAPK14 mRNA in control and FOXO4 KD IMR-32 cells; format: cell-based, human; conditions: 24 hours
Description: as §1, §2
Normal control cells and FOXO4KD cells were incubated with two doses of Compound C for 24 hours, and subjected to QRT-PCR analysis of the MAPK11-14 genes. The relative mRNA expression of all four MAPK genes in normal control IMR-32 cells was assessed. […] Data in Compound C-treated control and FOXO4 KD cells were normalized by their levels in control and FOXO4KD cells, respectively. Mean±SEM of indicated number of samples in the bar graphs. […]

[2] = system: Zic1-5, Foxp2, Drd1a, Tac1, Sez6, Penk, Dlx5, Rarb, Meis2, Ddx5, Gpr88, Pde10a, Akap5, Isl1; assay: QRT-PCR of Zic genes and brain development/neuronal function genes in APP/PS1 mouse brains; format: in vivo; conditions: Compound C diet vs control diet
Description: Male APPΔNLh/ΔNLh×PS1P246 L/246 L knock-in model mice of Alzheimer's disease (abbreviated APP/PS1) were genotyped using standard primers for human APP (Amyloid Precursor Protein) and human PS1 (PSEN1). These APP/PS1 mice starting at the age of 6 months, were fed either a control diet containing normal levels of selenium (0.3 ppm from plant and inorganic selenium salt sources) or an experimental diet containing Compound C (the control diet to which was added 1 ppm Se from Compound C) for 6 months. […]
Approximately 10 mg brain sample was homogenized with a Qiagen TissueRuptor (Qiagen, Valencia, Calif.) and total RNA was extracted using an RNeasy Mini kit (Qiagen), following the protocol recommended by the company. […] Integrity and purity of isolated RNA was assessed using a NanoDrop ND-1000 spectrophotometer (Thermo Scientific, Wilmington, Del.) and further confirmed with an Agilent 2100 Bioanalyzer System (Agilent Technologies, Santa Clara, Calif.).
RNA samples were subjected to real-time PCR analysis using the Applied-Bioscience's RT kit and predesigned Taqman probes (Invitrogen), as described previously (Lan et al EMBO J 2003). Three to six samples were analyzed in each group. […]

## C[Se]C[C@H]1O[C@@H](n2cnc3c(N)ncnc32)C(O)C1O (stereo in doubt) [Compound C, 5′-deoxy-5′-methylselenoadenosine]
PPARG; FOXO4KD cells, 75 ppb and 150 ppb, 24 hours
  PPARG mRNA expression: not significantly altered
PPARG; IMR-32 cells, 150 ppb, 6 hours
  PPARG mRNA levels: significantly lower
PPARG; control normal cells, 75 ppb and 150 ppb, 24 hours
  PPARG mRNA levels: attenuated
[1]; FOXO4KD cells, serum-containing media
  MT potential: no significant effect
[1]; FOXO4KD cells, serum-free media
  MT potential: no significant increase
[1]; normal control KD cells, serum-containing media
  MT potential: significantly enhanced
[1]; normal control KD cells, serum-free media
  MT potential: significantly stimulated
MAPK14; FOXO4KD cells, 75 ppb and 150 ppb
  MAPK14 mRNA levels: none of the mRNA levels of the four MAPK genes in FOXO4KD cells were significantly altered
MAPK14; control KD cells, 75 ppb
  MAPK14 mRNA levels: trend towards decreased
MAPK14; control KD cells, 150 ppb
  MAPK14 mRNA levels: significantly decreased
[2]
  expression of Foxp2, Drd1a, Tac1, Sez6, Penk, Dlx5, Rarb, Meis, Ddx5, Gpr88, Pde10a, Isl1 and Akap5 by QRT-PCR: significantly elevated
  expression of Zic1, Zic2, Zic3, Zic4 and Zic5 by QRT-PCR: significantly elevated
